According to publication PMC12734371, “Synthesis, Anti-Tumour, and Antibacterial Activities of Monocarbonyl Curcumin Analogues of Piperidones” (International Journal of Molecular Sciences, 2025):
In brackets after ≈: the same amount, converted by molar mass. Entries after “also recorded” stand apart in the source; their conditions may differ.

Columns and labels:
[1] = system: A549 cells; experiment: MTT assay, inhibition of tumour cell growth; type: cell-based, human; details: mean ± s, n = 3
Procedure: (§1) The tumour cell suspension in logarithmic growth phase, containing about 5 × 10^3 cells, was taken and seeded onto a 96-well plate and gently shaken to disperse the cells evenly at the bottom of the plate. The cells were incubated in a constant temperature (37 °C) incubator for 24 h. The old medium was discarded, and 100 μL of the prepared working solution of piperidinone monocarbonyl curcumin analogues at different concentrations was added, and the cells were incubated in a constant temperature incubator for 24 h. Blank medium wells, blank cell wells, and 0.9% DMSO (highest content) wells were set up, with 6 multi-well and 3 multi-plates for each concentration. The discarded old medium was absorbed, and 100 μL of 10% 5 mg/mL MTT working solution was added to each well (operated away from light) and placed in a cell incubator for further incubation for 4 h. The old medium was discarded, and 100 μL of DMSO was added to each well and shaken in an air shaker at 100 RPM for 10 min. The absorbance of the OD value was measured at 490 nm by a multifunctional microplate analyzer. According to Formula (1), the inhibition rates of different piperidones monocarbonyl curcumin analograms on 4 tumour cells were calculated, and IC50 was calculated by GraphPad Prism 8.0:Inhibition rate (%) = (OD blank cell group − OD administration group)/OD blank cell group(1)

[2] = system: Hela cells; experiment: MTT assay, inhibition of tumour cell growth; type: cell-based, human; details: 24 h, mean ± s, n = 3
Procedure: as §1

[3] = system: HepG2 cells; experiment: MTT assay, inhibition of tumour cell growth; type: cell-based, human; details: mean ± s, n = 3
Procedure: as §1

[4] = system: MCF-7 cells; experiment: MTT assay, inhibition of tumour cell growth; type: cell-based, human; details: mean ± s, n = 3
Procedure: as §1

[5] = system: MRSA; experiment: Broth microdilution inhibition test and MIC; type: cell-based, methicillin-resistant Staphylococcus aureus; details: Staphylococcus aureus, MRSA
Procedure: Then, the MIC values of 100% compounds at the maximum inhibitory concentration were obtained by the broth microdilution method. The specific experiments are as follows: First, in the 96-well plate, add 100 μL of compound working solution from column 2 to column 8, with concentrations decreasing from high to low, repeating each concentration 6 times. Add 100 μL of NB nutrient broth containing 1% DMSO to column 9, and 100 μL of blank NB nutrient broth to columns 10 and 11. Then, add 10 μL of bacterial suspension to each well from columns 2 to 10. Place the 96-well plate in a 37 °C incubator for 16 h at 100 rpm and measure the absorbance at 600 nm by microplate reader. Columns 2 to 9 represent the drug treatment group, column 10 is the negative control group, and column 11 is the blank control group. The minimum concentration that inhibits bacterial growth is the MIC value of the compound: Bacterial inhibition rate (%) = (OD administration − OD control)/(ODcontrol − OD blank) (3)

[6] = system: MRSA; experiment: AGAR plate zone of inhibition test (filter paper); type: cell-based, methicillin-resistant Staphylococcus aureus; details: Staphylococcus aureus, 160 μmol/L, 6 mm filter paper, 16 h, mean ± s, n = 3, read-out: Diameter of Bacteriostatic Zone
Procedure: Based on the results of previous experiments, the promising compounds were selected, and the size of the inhibition zone at 160 μmol/L was determined. The specific operation was as follows: The nutrient agar medium, after high temperature sterilization, was poured into about 20 mL per 9 cm plate in an ultra-clean bench and naturally cooled and solidified. Each plate was evenly coated with 100 μL MRSA bacterial suspension. The filter paper of 6 mm diameter soaked in the drug solution was dried by flame evaporation, and four tablets were placed in parallel into each plate, cultured in a constant temperature incubator at 37 °C for 16 h, and the size of the inhibition zone was measured.

[7] = system: L02 cells; experiment: MTT assay, toxicity to human normal liver cells; type: cell-based; details: mean ± s, n = 3
Procedure: The cells were passaged to the fourth generation of L02 cells, and the cell suspension containing about 5 × 10^3 cells was added to each well of the 96-well plate and cultured in a cell culture incubator for 24 h. The old medium was discarded, and different concentrations of liquid medicine (6 porous and 3 plates for each concentration) were added and incubated for 24 h. The old medium was discarded, 10% of 5 mg/mL MTT working solution was added in the dark, and the cells were incubated in a cell incubator for 4 h. The old medium was discarded, 100 μL DMSO was added to each well, and 100 RPM was oscillated on an air shaker for 10 min. The OD value was measured at 490 nm with a multifunctional microplate reader. According to the OD value, the inhibition rate of different piperidone monocarbonyl curcumin analogues on L02 cells was calculated according to Formula (1), and IC50 was calculated by Graph Pad Prism 8.0.

[8] = system: A549 cells; experiment: Cell wound scratch assay (migration); type: cell-based, human; details: 6 h; high, medium, and low concentrations
Procedure: A549 cells in logarithmic phase were digested with 0.25% trypsin and blown to single cell suspension with a dropper. The cell density was adjusted to 5 × 10^5 cells/mL. The cells were inoculated on 6-well plates, 2 mL per well, and cultured in a cell incubator at 37 °C, 5% CO2, and saturated humidity for 24 h until the gaps were basically fused. A 10 μL micro pipette tip was used to scratch vertically in a 6-well plate. After washing with PBS solution 3 times, the drug-containing medium was added, 2 mL per well, and three wells were set in each group. The culture plates were placed in a 5% CO2 incubator at 37 °C for 6 h and 24 h and observed and photographed with an inverted fluorescence microscope. The images were obtained by NIS Elements Viewer 4.2.0, and the scratch area and width were calculated. The cell migration rate was calculated by Formula (2):[Cell migration rate (%) = (0 h scratch area − scratch area at different times)/0 h scratch area × 100%](2)

[9] = system: A549 cells; experiment: Cell morphology by inverted microscope; type: cell-based, human; details: 5 μmol/L, 24 h
Procedure: The cells were inoculated in a 6-well plate, and about 1 × 10^6 A549 cells in the logarithmic growth phase were inoculated in each well. After the cells were cultured in a constant temperature incubator for 24 h, the old medium was discarded, and five kinds of piperidone monocarbonyl curcumin analogue solution (5, 10, and 20 μmol/L), curcumin (10, 20, and 40 μmol/L), and 0.9% DMSO were added as the blank control group for 24 h, and then the cell morphology was observed by inverted microscope (200×).

[10] = system: ERK (extracellular regulated protein kinases); experiment: Western blot, ERK level in A549 cells; type: cell-based, human; details: 10, 5, 2.5 μmol/L, 24 h
Procedure: A549 cells in logarithmic growth phase were seeded in 6-well plates at 1 × 10^6 cells/mL per well. The cells were cultured overnight in an incubator. Different concentrations of drug-containing medium of 2,5-2Cl, 2Br-5Cl, 2-Cl, 2-F, benzaldehyde ([…]), curcumin (20 μmol/L), and cisplatin (30 μmol/L) were added, and the blank control […] The RIPA cell lysis buffer containing protease inhibitors was added to the Petri dish to collect the proteins of each experimental group, and the supernatant was collected as a protein sample after ultrasonic centrifugation. Protein quantification was performed by the BCA method. A total of 20 μg protein was separated by 10% SDS-PAGE, and then the protein was transferred to a PVDF membrane. The membrane was blocked with 5% skim milk for 1 h, and the corresponding primary antibody was incubated at 4 °C overnight. After washing the membrane three times with TBST, the bands were incubated with the corresponding secondary antibodies at room temperature for 1 h. After cleaning the membrane with TBST 3 times, the darkroom was developed with ECL luminescence. Using GAPDH as an internal reference, the protein bands were analyzed by ImageJ 1.8.0.

[11] = system: A549 cells; experiment: Flow cytometry apoptosis (Annexin V/PI); type: cell-based, human; details: 24 h
Procedure: The A549 cells in logarithmic growth phase were inoculated in 6-well plates at 1 × 10^6 cells. After resting in the incubator for 24 h, the cells were treated with different concentrations of drugs. The blank control group was added with the medium with the highest concentration of DMSO. After 24 h of culture, cells were collected, washed with PBS, transferred to a flow tube, and resuspended with 100 μL of 1 × Annexin V conjugate. Add 4 μL YF4/88-Annexin N and 5 μL PI working solution. The cells were incubated in the dark at room temperature for 10 min, transferred to a flow cytometer tube, added with 200 μL of 1 × Annexin V conjugate, and immediately detected by flow cytometry.

| Molecule | IC50 ([1]; 24 h) [µM] | IC50 [2] [µM] | IC50 ([3]; 24 h) [µM] | IC50 ([4]; 24 h) [µM] | further results |
| --- | --- | --- | --- | --- | --- |
| 3,5-Bis(3,5-dibromo-benzyl)-4-piperidone [3,5-2Br] | > 40 | 12.8 ± 3.18 | > 40 | > 40 |  |
| 3,5-Bis(4-bromo-benzyl)-4-piperidinone | 15.5 ± 2.35 | > 40 | 7.15 ± 4.62 | 19.7 ± 3.68 |  |
| 3,5-Bis(2-bromo-benzyl)-4-piperidone | 16.6 ± 1.84 | 12.3 ± 2.67 | 7.03 ± 3.24 | > 40 |  |
| NC[C@H]1O[C@H](O[C@H]2[C@H](O)[C@@H](O[C@H]3O[C@H](CO)[C@@H](O)[C@H](N)[C@H]3O)[C@H](N)C[C@@H]2N)[C@H](N)C[C@@H]1O [Tobramycin, reference compound] |  |  |  |  | inhibition at 70 µM ([5]; 70 μmol/L, read-out: Inhibition rate of MRSA): < 100%; inhibition at 80 µM ([5]; 80 μmol/L, read-out: Inhibition rate of MRSA): 100%; inhibition at 160 µM ([5]; 160 μmol/L): 100%; MIC ([5]; broth microdilution, read-out: MIC): 80 µM (≈ 37.4 µg/mL); zone of inhibition at 160 µM [6]: 10.7 ± 0.58 mm |
| O=C1C(=Cc2ccc(Cl)c(Cl)c2)CNCC1=Cc1ccc(Cl)c(Cl)c1 [3,4-2Cl, 3,5-Bis(3,4-dichlorobenzylidene)-4-piperidone] |  |  |  |  | IC50 ([1]; Homo sapiens, A549, 24 h): 11.9 ± 4.64 µM; IC50 ([2]; Homo sapiens, HeLa): > 40 µM; IC50 ([3]; Homo sapiens, HepG2, 24 h): > 40 µM; IC50 ([4]; Homo sapiens, MCF7, 24 h): > 40 µM |
| O=C1C(=Cc2cc(Cl)ccc2Br)CNCC1=Cc1cc(Cl)ccc1Br [2Br-5Cl] | 4.75 ± 1.51 | 6.24 ± 2.46 | 8.42 ± 1.99 | 6.36 ± 1.28 | IC50 ([7]; 24 h): 58.2 ± 2.79 µM; Cell migration rate vs blank control (0.9% DMSO) [8]: no statistical difference; Cell morphology [9]: most of the cells became round and loose; ERK protein level vs control group [10]: significantly lower; also recorded: most obvious |
| O=C1C(=Cc2cc(Br)ccc2Cl)CNCC1=Cc1cc(Br)ccc1Cl [5Br-2Cl] | 14.2 ± 3.85 | > 40 | 29.3 ± 2.94 | > 40 |  |
| O=C1C(=Cc2ccc(Br)cc2F)CNCC1=Cc1ccc(Br)cc1F [4Br-2F] | 20.2 ± 4.15 | 18.7 ± 3.66 | 16.4 ± 1.97 | 28.5 ± 2.91 |  |
| COc1cc(/C=C/C(=O)CC(=O)/C=C/c2ccc(O)c(OC)c2)ccc1O [Curcumin] |  |  |  |  | IC50 ([1]; Homo sapiens, A549, 24 h): 33.5 ± 3.83 µM; IC50 ([2]; Homo sapiens, HeLa): 29.2 ± 2.57 µM; IC50 ([3]; Homo sapiens, HepG2, 24 h): 17.6 ± 3.43 µM; IC50 ([4]; Homo sapiens, MCF7, 24 h): 39.2 ± 2.81 µM; IC50 ([7]; Homo sapiens, L02, 24 h): 30.4 ± 1.04 µM; Proportion of normal cells (flow cytometry) ([11]; 20 μmol/L): 84.27% |
| O=C1C(=Cc2ccc(Cl)cc2Br)CNCC1=Cc1ccc(Cl)cc1Br [2Br-4Cl] | 18.2 ± 3.15 | 23.4 ± 3.34 | 27.3 ± 2.64 | > 40 |  |
| O=C1C(=Cc2ccc(F)cc2Br)CNCC1=Cc1ccc(F)cc1Br [2Br-4F] | 21.8 ± 3.68 | > 40 | 18.3 ± 4.38 | > 40 |  |
| O=C1C(=Cc2cccc(Br)c2)CNCC1=Cc1cccc(Br)c1 [3-Br] | > 40 | > 40 | 18.3 ± 3.44 | 22.5 ± 3.55 |  |
| N.N.[Cl][Pt][Cl] [Cisplatin solution, reference compound] | 41.2 ± 3.49 | 59.4 ± 1.7 | 27.7 ± 3.26 | 55.2 ± 4.09 | IC50 ([7]; 24 h): 48.4 ± 3.83 µM; Proportion of normal cells (flow cytometry) ([11]; 30 μmol/L): 86.27% |
| CC1(C)S[C@@H]2[C@H](NC(=O)Cc3ccccc3)C(=O)N2[C@H]1C(=O)O [Penicillin] |  |  |  |  | zone of inhibition at 160 µM [6]: 8.67 ± 0.58 mm |
